# Results published in ChEMBL document CHEMBL1155531, “Structure guided design of 5-arylindazole glucocorticoid receptor agonists and antagonists” (J Med Chem, 2010).
# pIC50: −log10 of the molar value.
# What was measured:
# [1] = Relative plasma concentration in mouse assessed as ratio of plasma concentration in mouse at 10 mg/kg, po to IC50 for NF-kappaB transrepression activity in A549 cells expressing MMTV reporter gene; assay type: ADME, organism-based; design: dose 10 mg/kg, route oral; conditions: in vivo
# [2] = Plasma clearance in DBA1 mouse at 1 mg/kg, po and 1 mg/kg, iv; assay type: ADME, organism-based
# [3] = Antiinflammatory activity in human primary synovial fibroblasts assessed as inhibition of IL1-induced IL6 release after 18 hrs by MSD technology; assay type: functional
# [4] = Volume of distribution at steady state in DBA1 mouse at 1 mg/kg, po and 1 mg/kg, iv; assay type: ADME, organism-based; conditions: in vivo, read-out: Vdss
# [5] = Plasma concentration in mouse bearing mouse NIH-3T3 cells integrated with MMTV reporter gene at 1 mg/kg, po after 1 hr; assay type: ADME, organism-based, NIH3T3; design: dose 1 mg/kg, route oral
# [6] = Plasma concentration in mouse bearing mouse NIH-3T3 cells integrated with MMTV reporter gene at 10 mg/kg, po after 1 hr; assay type: ADME, organism-based, NIH3T3; design: dose 10 mg/kg, route oral
# [7] = Elimination half life in CD rat at 1 mg/kg, po and 1 mg/kg, iv; assay type: ADME, organism-based; conditions: in vivo, read-out: beta t1/2 (converted)
# Androgen receptor = biological target: T1, Androgen receptor (Homo sapiens, UniProt P10275)
# T1 sequence (P10275 whole entry): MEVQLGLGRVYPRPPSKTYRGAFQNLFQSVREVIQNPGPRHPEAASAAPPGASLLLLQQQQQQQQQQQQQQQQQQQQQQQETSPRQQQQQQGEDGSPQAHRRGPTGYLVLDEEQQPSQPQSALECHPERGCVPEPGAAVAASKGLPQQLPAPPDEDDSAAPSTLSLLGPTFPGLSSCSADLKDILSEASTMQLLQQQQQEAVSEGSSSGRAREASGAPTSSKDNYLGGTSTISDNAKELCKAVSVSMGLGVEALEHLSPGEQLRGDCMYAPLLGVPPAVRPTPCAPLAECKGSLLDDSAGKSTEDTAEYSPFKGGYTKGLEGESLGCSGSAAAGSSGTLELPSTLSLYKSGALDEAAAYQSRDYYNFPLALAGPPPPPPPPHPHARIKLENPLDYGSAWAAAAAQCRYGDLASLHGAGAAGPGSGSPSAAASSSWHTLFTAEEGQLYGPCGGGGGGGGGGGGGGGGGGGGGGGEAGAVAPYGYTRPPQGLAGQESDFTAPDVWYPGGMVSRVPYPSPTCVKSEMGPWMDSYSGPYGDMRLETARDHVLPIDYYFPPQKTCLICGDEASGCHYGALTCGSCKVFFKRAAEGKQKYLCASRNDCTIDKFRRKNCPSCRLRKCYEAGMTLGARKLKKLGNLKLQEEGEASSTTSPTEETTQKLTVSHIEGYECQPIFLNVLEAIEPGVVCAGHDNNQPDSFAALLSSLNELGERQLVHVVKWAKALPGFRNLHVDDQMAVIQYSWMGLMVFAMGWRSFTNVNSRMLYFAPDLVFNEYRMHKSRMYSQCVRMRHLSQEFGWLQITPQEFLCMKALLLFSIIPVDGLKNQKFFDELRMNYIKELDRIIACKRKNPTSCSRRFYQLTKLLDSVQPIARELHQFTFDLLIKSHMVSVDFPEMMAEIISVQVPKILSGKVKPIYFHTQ
# Hepatocyte = assay: Toxicity in human hepatocytes assessed as increase in PEPCK mRNA level after 18 hrs by PCR; assay type: cell-based
# [8] = Plasma clearance in CD rat at 1 mg/kg, po and 1 mg/kg, iv; assay type: ADME, organism-based
# [9] = Relative plasma concentration in mouse assessed as ratio of plasma concentration in mouse at 0.1 mg/kg, po to IC50 for NF-kappaB transrepression activity in A549 cells expressing MMTV reporter gene; assay type: ADME, organism-based; design: dose 0.1 mg/kg, route oral; conditions: in vivo
compound,measurement,setting,value
O=S(=O)(Cc1ccccc1)Nc1ccc(-c2ccc3c(cnn3-c3ccc(F)cc3)c2)c(C(F)(F)F)c1,fold change (FC),[1],273
same,clearance,[2],8 mL/min/kg
same,pIC50,[3],8.50
same,Vd,[4],1.8 L/kg
same,concentration at 1 h,[5],290 nM
same,concentration at 1 h,[6],2730 nM
same,half-life,[7],3.3 h
same,pIC50,Androgen receptor,< 5.00
same,Activity,Hepatocyte,Toxic
same,clearance,[8],8 mL/min/kg
same,fold change (FC),[9],2.5
